Converted amounts (≈) assume the structure as drawn. The source made the active and inactive calls. The calls are words filed in the database; no cut-off is given here.
Assays:
Escherichia coli [1] = assay: Antibacterial activity against Escherichia coli ATCC 25922 after 18 hrs by CLSI based broth microdilution method; assay type: functional; conditions: ATCC 25922, 18 h
Escherichia coli [2] = assay: Antibacterial activity against Escherichia coli ATCC 43837 after 18 hrs by CLSI based broth microdilution method; assay type: functional; conditions: ATCC 43837, 18 h
Klebsiella pneumoniae [3] = assay: Antibacterial activity against Klebsiella pneumoniae ATCC 700603 after 18 hrs by CLSI based broth microdilution method; assay type: functional; conditions: Klebsiella pneumoniae, 700603, 18 h
Pseudomonas aeruginosa [4] = assay: Antibacterial activity against Pseudomonas aeruginosa ATCC 27853 after 18 hrs by CLSI based broth microdilution method; assay type: functional; conditions: ATCC 27853, 18 h
Staphylococcus aureus [5] = assay: Antibacterial activity against Staphylococcus aureus ATCC 25923 after 18 hrs by CLSI based broth microdilution method; assay type: functional; conditions: ATCC 25923, 18 h
Staphylococcus aureus [6] = assay: Antibacterial activity against methicillin-resistant Staphylococcus aureus 936 after 18 hrs by CLSI based broth microdilution method; assay type: functional; conditions: Staphylococcus aureus, 936, 18 h
Bacillus subtilis = assay: Antibacterial activity against Bacillus subtilis ATCC 23857 after 18 hrs by CLSI based broth microdilution method; assay type: functional; conditions: ATCC 23857, 18 h
Erythrocyte = assay: Hemolytic activity in human RBC measured after 1 hr by microplate reader analysis; assay type: ADME, cell-based
[7] = Selectivity index, ratio of MHC10 for human RBC to geometric mean of peptide MIC for gram positive bacteria; assay type: toxicity; conditions: human red blood cells, read-out: Selectivity Index
[8] = Selectivity index, ratio of MHC10 for human RBC to geometric mean of peptide MIC for gram negative bacteria; assay type: toxicity; conditions: human red blood cells, read-out: Selectivity Index
Escherichia coli [9] = assay: Potentiation of polymyxin B-induced antibacterial activity against Escherichia coli ATCC 25922 assessed as FICI after 18 hrs by checker board assay; assay type: functional
Klebsiella pneumoniae [10] = assay: Potentiation of polymyxin B-induced antibacterial activity against Klebsiella pneumoniae ATCC 700603 assessed as FICI after 18 hrs by checker board assay; assay type: functional
Pseudomonas aeruginosa [11] = assay: Potentiation of polymyxin B-induced antibacterial activity against Pseudomonas aeruginosa ATCC 27853 assessed as FICI after 18 hrs by checker board assay; assay type: functional
Escherichia coli [12] = assay: Potentiation of rifampicin-induced antibacterial activity against Escherichia coli ATCC 25922 assessed as FICI after 18 hrs by checker board assay; assay type: functional
Pseudomonas aeruginosa [13] = assay: Potentiation of rifampicin-induced antibacterial activity against Pseudomonas aeruginosa ATCC 27853 assessed as FICI after 18 hrs by checker board assay; assay type: functional
Escherichia coli [14] = assay: Antibiofilm activity against Escherichia coli ATCC 25922 after 24 hrs by crystal violet staining based assay; assay type: functional, organism-based
Staphylococcus aureus [15] = assay: Antibiofilm activity against Staphylococcus aureus ATCC 25923 after 24 hrs by crystal violet staining based assay; assay type: functional, organism-based
Pseudomonas aeruginosa [16] = assay: Antibiofilm activity against Pseudomonas aeruginosa ATCC 27853 after 24 hrs by crystal violet staining based assay; assay type: functional, organism-based
Escherichia coli [17] = assay: Antibiofilm activity against Escherichia coli ATCC 25922 at 2 times MIC after 24 hrs by crystal violet staining based assay; assay type: functional, organism-based
Escherichia coli [18] = assay: Antimicrobial activity against Escherichia coli ATCC 25922 at 1 mM preincubated for 6 hrs in presence of 2000 ug/ml trypsin and measured after 18 hrs by microplate reader analysis; assay type: functional, organism-based
Escherichia coli [19] = assay: Ratio of MIC for Escherichia coli ATCC 25922 preincubated for 6 hrs in presence of 10% mouse serum and measured after 18 hrs to MIC for antibacterial activity against Escherichia coli ATCC 25922 after 18 hrs; assay type: functional
Escherichia coli [20] = assay: Induction of outer membrane permeabilization in Escherichia coli ATCC 25922 measured up to 12 mins by NPN-dye based assay; assay type: organism-based
Escherichia coli [21] = assay: Induction of inner membrane permeabilization in Escherichia coli ATCC 43837 assessed as increase in ONPG release at 4 times of MIC by ONPG dye based assay; assay type: organism-based
Escherichia coli [22] = assay: Induction of inner membrane permeabilization in Escherichia coli ATCC 43837 assessed as increase in ONPG release at 1 to 2 times of MIC by ONPG dye based assay; assay type: organism-based
Escherichia coli [23] = assay: Disruption of membrane integrity in Escherichia coli ATCC 25922 assessed as membrane damage by measuring PI fluorescence at 4 times of MIC incubated for 1 hr by PI dye based flow cytometric analysis (reference value: 1.35%); assay type: functional
Escherichia coli [24] = assay: Disruption of membrane integrity in Escherichia coli ATCC 25922 assessed as membrane damage by measuring PI fluorescence at 2 times of MIC incubated for 1 hr by PI dye based flow cytometric analysis (reference value: 1.35%); assay type: functional
Escherichia coli [25] = assay: Disruption of membrane integrity in Escherichia coli ATCC 25922 assessed as membrane damage by measuring PI fluorescence incubated for 1 hr by PI dye based flow cytometric analysis; assay type: functional, organism-based
Escherichia coli [26] = assay: Induction of membrane disruption in Escherichia coli ATCC 25922 assessed as rough membrane surface at 4 times of MIC after 2 hrs by SEM analysis; assay type: functional, organism-based
Escherichia coli [27] = assay: Induction of membrane disruption in Escherichia coli ATCC 25922 assessed as corrugated membrane surface at 4 times of MIC after 2 hrs by SEM analysis; assay type: functional, organism-based
Escherichia coli [28] = assay: Induction of membrane disruption in Escherichia coli ATCC 25922 assessed as degeneration in membrane at 4 times of MIC after 2 hrs by SEM analysis; assay type: functional, organism-based
DNA = assay: Binding affinity to Escherichia coli ATCC 25922 genomic DNA after 30 mins by agarose gel electrophoresis; assay type: nucleic-acid assay
Escherichia coli [29] = assay: Ratio of antibacterial activity against Escherichia coli ATCC 25922 in presence of NaCl to antibacterial activity against Escherichia coli ATCC 25922; assay type: functional
Escherichia coli [30] = assay: Ratio of antibacterial activity against Escherichia coli ATCC 25922 in presence of KCl to antibacterial activity against Escherichia coli ATCC 25922; assay type: functional
Escherichia coli [31] = assay: Ratio of antibacterial activity against Escherichia coli ATCC 25922 in presence of MgCl2 to antibacterial activity against Escherichia coli ATCC 25922; assay type: functional
Escherichia coli [32] = assay: Ratio of antibacterial activity against Escherichia coli ATCC 25922 in presence of FeCl3 to antibacterial activity against Escherichia coli ATCC 25922; assay type: functional
Staphylococcus aureus [33] = assay: Ratio of antibacterial activity against Staphylococcus aureus ATCC 25923 in presence of NaCl to antibacterial activity against Staphylococcus aureus ATCC 25923; assay type: functional
Staphylococcus aureus [34] = assay: Ratio of antibacterial activity against Staphylococcus aureus ATCC 25923 in presence of KCl to antibacterial activity against Staphylococcus aureus ATCC 25923; assay type: functional
Staphylococcus aureus [35] = assay: Ratio of antibacterial activity against Staphylococcus aureus ATCC 25923 in presence of MgCl2 to antibacterial activity against Staphylococcus aureus ATCC 25923; assay type: functional
Staphylococcus aureus [36] = assay: Ratio of antibacterial activity against Staphylococcus aureus ATCC 25923 in presence of FeCl3 to antibacterial activity against Staphylococcus aureus ATCC 25923; assay type: functional
Escherichia coli [37] = assay: Induction of ROS generation in Escherichia coli ATCC 25922; assay type: functional, organism-based
Pseudomonas aeruginosa [38] = assay: Antibiofilm activity against Pseudomonas aeruginosa ATCC 27853 at 0.25 to 2 times of MIC after 24 hrs by crystal violet staining based assay; assay type: functional, organism-based

Row | Structure (SMILES) | MIC (Escherichia coli [1]) | MIC (Escherichia coli [2]) | MIC (Klebsiella pneumoniae [3]) | MIC (Pseudomonas aeruginosa [4]) | MIC (Staphylococcus aureus [5]) | MIC (Staphylococcus aureus [6]) | MIC (Bacillus subtilis) | MHC10 (Erythrocyte) | selectivity ratio [7] | selectivity ratio [8] | fractional inhibitory concentration index (FICI) (Escherichia coli [9]) | fractional inhibitory concentration index (FICI) (Klebsiella pneumoniae [10]) | fractional inhibitory concentration index (FICI) (Pseudomonas aeruginosa [11]) | fractional inhibitory concentration index (FICI) (Escherichia coli [12]) | fractional inhibitory concentration index (FICI) (Pseudomonas aeruginosa [13]) | inhibition (Escherichia coli [14]) | inhibition (Staphylococcus aureus [15]) | inhibition (Pseudomonas aeruginosa [16]) | inhibition (Escherichia coli [17]) | Activity (Escherichia coli [18]) | other results
1 | CCCCCCCCCCCC(=O)NCC(=O)N[C@@H](CC(C)C)C(=O)N[C@@H](CC(C)C)C(=O)N[C@H](CCCCN)C(=O)N[C@@H](CCCNC(=N)N)C(=O)N[C@H](C(=O)N[C@H](CCCCN)C(=O)N[C@H](C(=O)N[C@@H](CC(C)C)C(=O)N[C@@H](CC(C)C)C(N)=O)[C@@H](C)O)[C@@H](C)CC | 16 µM (≈ 21.4 µg/mL) | 16 µM (≈ 21.4 µg/mL) | 8 µM (≈ 10.7 µg/mL) | 16 µM (≈ 21.4 µg/mL) | 4 µM (≈ 5.34 µg/mL) | 16 µM (≈ 21.4 µg/mL) | 2 µM (≈ 2.67 µg/mL) | 16 µM | 2.18 | 1.14 | 0.1875 | 0.3125 | 0.1875 | 0.5625 | 0.3125 | Dose-dependent effect | Dose-dependent effect | Dose-dependent effect | Active | Active | Ratio (Escherichia coli [19]): 2; Activity (Escherichia coli [20]): Dose-dependent effect; Activity (Escherichia coli [21]): Active; Activity (Escherichia coli [22]): Active; Activity (Escherichia coli [23]): 94.7%; Activity (Escherichia coli [24]): 60.8%; Activity (Escherichia coli [25]): Dose-dependent effect; Activity (Escherichia coli [26]): Active; Activity (Escherichia coli [27]): Active; Activity (Escherichia coli [28]): Active; Activity (DNA): Dose-dependent effect; Ratio (Escherichia coli [29]): 2 - 4; Ratio (Escherichia coli [30]): 2 - 4; Ratio (Escherichia coli [31]): 2 - 4; Ratio (Escherichia coli [32]): 2 - 4; Ratio (Staphylococcus aureus [33]): 2 - 4; Ratio (Staphylococcus aureus [34]): 2 - 4; Ratio (Staphylococcus aureus [35]): 2 - 4; Ratio (Staphylococcus aureus [36]): 2 - 4; Activity (Escherichia coli [37]): inactive
2 | CCCCCCCC(=O)NCC(=O)N[C@@H](CC(C)C)C(=O)N[C@@H](CC(C)C)C(=O)N[C@H](CCCCN)C(=O)N[C@@H](CCCNC(=N)N)C(=O)N[C@H](C(=O)N[C@H](CCCCN)C(=O)N[C@H](C(=O)N[C@@H](CC(C)C)C(=O)N[C@@H](CC(C)C)C(N)=O)[C@@H](C)O)[C@@H](C)CC | 64 µM (≈ 81.9 µg/mL) | 32 µM (≈ 41 µg/mL) | 64 µM (≈ 81.9 µg/mL) | 8 µM (≈ 10.2 µg/mL) | 32 µM (≈ 41 µg/mL) | 64 µM (≈ 81.9 µg/mL) | 4 µM (≈ 5.12 µg/mL) | > 256 µM | 15.4 | 12.2 | 0.1875 | 0.0625 | 0.1875 | 0.0625 | 0.75 | Dose-dependent effect | Dose-dependent effect | Dose-dependent effect | Active | Active | inhibition (Pseudomonas aeruginosa [38]): Active; Ratio (Escherichia coli [19]): 1; Activity (Escherichia coli [20]): Dose-dependent effect; Activity (Escherichia coli [21]): Active; Activity (Escherichia coli [23]): 70.8%; Activity (Escherichia coli [24]): 64.6%; Activity (Escherichia coli [25]): Dose-dependent effect; Activity (Escherichia coli [26]): Active; Activity (Escherichia coli [27]): Active; Activity (Escherichia coli [28]): Active; Activity (DNA): Dose-dependent effect; Ratio (Escherichia coli [29]): 2 - 4; Ratio (Escherichia coli [30]): 2 - 4; Ratio (Escherichia coli [31]): 2 - 4; Ratio (Escherichia coli [32]): 2 - 4; Ratio (Staphylococcus aureus [33]): 2 - 4; Ratio (Staphylococcus aureus [34]): 2 - 4; Ratio (Staphylococcus aureus [35]): 2 - 4; Ratio (Staphylococcus aureus [36]): 2 - 4; Activity (Escherichia coli [37]): inactive
3 | CCCCCCCCCC(=O)NCC(=O)N[C@@H](CC(C)C)C(=O)N[C@@H](CC(C)C)C(=O)N[C@H](CCCCN)C(=O)N[C@@H](CCCNC(=N)N)C(=O)N[C@H](C(=O)N[C@H](CCCCN)C(=O)N[C@H](C(=O)N[C@@H](CC(C)C)C(=O)N[C@@H](CC(C)C)C(N)=O)[C@@H](C)O)[C@@H](C)CC | 16 µM (≈ 20.9 µg/mL) | 8 µM (≈ 10.5 µg/mL) | 16 µM (≈ 20.9 µg/mL) | 8 µM (≈ 10.5 µg/mL) | 8 µM (≈ 10.5 µg/mL) | 8 µM (≈ 10.5 µg/mL) | 8 µM (≈ 10.5 µg/mL) | 64 µM | 8 | 5.33 | 0.3125 | 0.3125 | 0.125 | 0.1875 | 0.3125 | Dose-dependent effect | Dose-dependent effect | Dose-dependent effect | inactive | Active | Ratio (Escherichia coli [19]): 1; Activity (Escherichia coli [20]): Dose-dependent effect; Activity (Escherichia coli [21]): Active; Activity (Escherichia coli [23]): 75.9%; Activity (Escherichia coli [24]): 49.6%; Activity (Escherichia coli [25]): Dose-dependent effect; Activity (Escherichia coli [26]): Active; Activity (Escherichia coli [27]): Active; Activity (Escherichia coli [28]): Active; Activity (DNA): Dose-dependent effect; Ratio (Escherichia coli [29]): 2 - 4; Ratio (Escherichia coli [30]): 2 - 4; Ratio (Escherichia coli [31]): 2 - 4; Ratio (Escherichia coli [32]): 2 - 4; Ratio (Staphylococcus aureus [33]): 2 - 4; Ratio (Staphylococcus aureus [34]): 2 - 4; Ratio (Staphylococcus aureus [35]): 2 - 4; Ratio (Staphylococcus aureus [36]): 2 - 4; Activity (Escherichia coli [37]): inactive

From ChEMBL document CHEMBL4359906, “Design and synthesis of new N-terminal fatty acid modified-antimicrobial peptide analogues with potent in vitro biological activity” (Eur J Med Chem, 2019)
